Measurements published in patent US9024041B2, “P38 MAP kinase inhibitors” (Respivert Ltd., priority 2010, dated 2015).
“Also recorded” adds a separate entry of the source. Marks after values point to notes of the source that are not given here.

Tests used:
[1] = target: T1, p38 MAPKα isoform (MAPK14: Invitrogen) (Homo sapiens, UniProt Q16539); assay: p38 MAPKα enzyme inhibition assay (FRET, Z-LYTE, via MAPKAP-K2 activation); format: biochemical; conditions: 2 hr pre-incubation, ATP 10.0 μM; read-out: Enzyme Inhibition IC50 p38α
T1 construct: purchased Invitrogen
Description: The enzyme inhibitory activities of compounds disclosed herein were determined by fluorescence resonance energy transfer (FRET) using synthetic peptides labelled with both donor and acceptor fluorophores (Z-LYTE, Invitrogen Ltd., Paisley, UK). Recombinant, phosphorylated p38 MAPKγ (MAPK12:Invitrogen) was diluted in HEPES buffer, mixed with the test compound at the desired final concentrations and incubated for 2 hr at RT. The FRET peptide (2 μM) and ATP (100 μM) were added to the enzyme/compound mixture and incubated for 1 hr. Development reagent (protease) was added for 1 hr prior to detection in a fluorescence microplate reader (Varioskan® Flash, ThermoFisher Scientific). The site-specific protease cleaves non-phosphorylated peptide only and eliminates the FRET signal. Phosphorylation levels of each reaction were calculated using the ratio of coumarin emission (donor) over fluorescein emission (acceptor) for which high ratios indicate high phosphorylation and low ratios indicate low phosphorylation levels.
For the p38 MAPKα isoform (MAPK14: Invitrogen), enzyme activity was evaluated indirectly by determining the level of activation/phosphorylation of the down-stream molecule, MAPKAP-K2. The p38 MAPKα protein was mixed with the test compound for 2 hr at RT. […] Development reagent was then added and the mixture incubated for 1 hr before detection by fluorescence completed the assay protocol.

[2] = target: T2, Recombinant, phosphorylated p38 MAPKγ (MAPK12:Invitrogen) (Homo sapiens, UniProt P53778); assay: p38 MAPKγ enzyme inhibition assay (FRET, Z-LYTE); format: biochemical; conditions: 2 hr pre-incubation, ATP 100 μM; read-out: Enzyme Inhibition IC50 p38γ
T2 construct: purchased Invitrogen
T2 sequence (P53778 1-367): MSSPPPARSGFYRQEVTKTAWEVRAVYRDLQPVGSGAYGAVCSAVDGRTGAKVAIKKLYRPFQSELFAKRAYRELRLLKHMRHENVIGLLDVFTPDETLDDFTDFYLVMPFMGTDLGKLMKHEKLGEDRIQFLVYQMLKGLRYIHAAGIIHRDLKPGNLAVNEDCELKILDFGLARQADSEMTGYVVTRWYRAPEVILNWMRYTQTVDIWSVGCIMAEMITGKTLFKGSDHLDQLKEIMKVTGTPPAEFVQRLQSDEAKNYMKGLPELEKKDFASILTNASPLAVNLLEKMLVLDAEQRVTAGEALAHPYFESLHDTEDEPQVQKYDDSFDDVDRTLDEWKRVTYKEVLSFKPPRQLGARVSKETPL

[3] = system: LPS-induced TNFα release in THP-1 cells; assay: LPS-induced TNFα release in THP-1 cells; format: cell-based; conditions: Homo sapiens, 3 μg/mL LPS, 4 hr
Outline: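 Human monocytic cells were stimulated with 3 μg/mL E. coli LPS for 4 hr. Supernatant TNFα was measured by sandwich ELISA. Inhibition was taken relative to vehicle control, and IC50 derived from the concentration-response curve.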

[4] = system: LPS-induced TNFα release in d-U937 cells; assay: LPS-induced TNFα release in d-U937 cells; format: cell-based; conditions: Homo sapiens, dU937, 4 h; read-out: LPS/TNFα REC50 d-U937
Outline: (§1)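 U937 cells differentiated with PMA (100 ng/mL, 48–72 hr), pre-incubated with compound 2 hr, then stimulated with 0.1 μg/mL E. coli O111:B4 LPS for 4 hr. Supernatant TNFα and IL-8 measured by sandwich ELISA; REC50 (TNFα) and IC50 (IL-8 inhibition vs vehicle) taken from concentration-response curves.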

[5] = system: LPS-induced IL-8 release in d-U937 cells; assay: LPS-induced IL-8 release in d-U937 cells; format: cell-based; conditions: Homo sapiens, dU937, 0.1 μg/mL LPS, 4 hr
Outline: as §1

[6] = system: Poly I:C-induced ICAM-1 expression in BEAS2B cells; assay: Poly I:C-induced ICAM-1 induction in BEAS2B cells; format: cell-based; conditions: Homo sapiens, BEAS-2B, poly I:C 1 μg/mL, 18 hr, read-out: PolyI:C/ICAM1 IC50 BEAS2B
Outline: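 Human bronchial epithelial BEAS2B cells were pre-incubated with compound for 2 h, then transfected with poly I:C at 1 μg/mL. Surface ICAM-1 was measured 18 h later by cell-based ELISA (OD450–655), normalised to crystal-violet cell number (OD595). IC50 was taken from the concentration–response curve against vehicle.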

[7] = system: Differentiated U937 cells; assay: MTT assay: cell viability on exposure to test compounds; format: cell-based, human; conditions: percentage loss of cell viability vs vehicle; for MTT Assay (Viability) 4 h d-U937: 5% FCS; for MTT Assay (Viability) 24 h d-U937: 10% FCS
Outline: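 Differentiated U937 cells were pre-incubated with compound for either 4 h in 5% FCS or 24 h in 10% FCS, then given MTT for 1 h. Formazan was dissolved in DMSO and read at 550 nm. Viability loss is expressed as % versus 0.5% DMSO vehicle, so an apparent gain appears as a negative value.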

[8] = system: LPS-induced neutrophil accumulation in Balb/c mice; assay: LPS-induced neutrophil accumulation in mice; format: in vivo; conditions: for % inhibition of Influx / Neutrophil numbers in BAL / % inhibition (neutrophil numbers in BAL): 0.2 mg/mL intra tracheal; for inhibitory effects versus neutrophil accumulation into the BALF (in words): dosed 8 hr prior to LPS challenge
Description: LPS-Induced Neutrophil Accumulation in Mice
Non-fasted Balb/c mice were dosed by the intra tracheal route with either vehicle, or the test substance at the indicated times (within the range 2-12 hr) before stimulation of the inflammatory response by application of an LPS challenge. At T=0, mice were placed into an exposure chamber and exposed to LPS. After a further 8 hr the animals were anesthetized, their tracheas cannulated and BALF extracted by infusing and then withdrawing from their lungs 1.0 mL of PBS via the tracheal catheter. Total and differential white cell counts in the BALF samples were measured using a Neubaur haemocytometer. Cytospin smears of the BALF samples were prepared by centrifugation at 200 rpm for 5 min at RT and stained using a DiffQuik stain system (Dade Behring). Cells were counted using oil immersion microscopy.

T1 sequence (Q16539 whole entry, canonical isoform): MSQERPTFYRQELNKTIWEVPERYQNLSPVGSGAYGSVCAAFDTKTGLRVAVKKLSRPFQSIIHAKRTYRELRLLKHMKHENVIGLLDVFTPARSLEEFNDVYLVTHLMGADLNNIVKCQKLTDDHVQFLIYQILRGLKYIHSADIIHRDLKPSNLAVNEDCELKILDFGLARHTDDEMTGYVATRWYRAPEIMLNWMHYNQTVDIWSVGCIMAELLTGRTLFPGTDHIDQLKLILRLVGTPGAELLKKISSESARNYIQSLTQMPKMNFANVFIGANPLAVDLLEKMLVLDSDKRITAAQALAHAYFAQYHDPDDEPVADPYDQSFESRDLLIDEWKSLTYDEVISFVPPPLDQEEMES

IC50 [1] [nM]	IC50 [2] [nM]	IC50 [3] [nM]	EC50 [4] [nM]	IC50 [5] [nM]	SMILES	IC50 [6] [nM]	MTT Assay (Viability) 4 h d-U937 ([7]; 1 μg/mL) [%]	MTT Assay (Viability) 24 h d-U937 ([7]; 1 μg/mL) [%]	% inhibition of Influx ([8]; 8 h pre-dose before LPS) [%]	Neutrophil numbers in BAL ([8]; 8 h pre-dose before LPS)	inhibitory effects versus neutrophil accumulation into the BALF (in words) [8]	MTT Assay (Viability) 4 h d-U937 ([7]; 10 μg/mL)	MTT Assay (Viability) 24 h d-U937 ([7]; 10 μg/mL)	% inhibition (neutrophil numbers in BAL) ([8]; 2 hr pre-dose before LPS) [%]	Neutrophil numbers in BAL ([8]; 2 hr pre-dose before LPS)	% inhibition (neutrophil numbers in BAL) ([8]; 12 h pre-dose before LPS) [%]	Neutrophil numbers in BAL ([8]; 12 h pre-dose before LPS)	inhibition of neutrophil accumulation into the BALF (in words) ([8]; administered 2 and 12 hr prior to LPS challenge)
10.7	168	1.3	0.03	8.6	COCC(=O)Nc1cc(Oc2ccc(NC(=O)Nc3cc(C(C)(C)C)nn3-c3ccc(CO)c(Cl)c3)c3ccccc23)ccn1 [Example 13, N-(4-(4-(3-(3-tert-Butyl-1-(3-chloro-4-(hydroxymethyl)phenyl)-1H-pyrazol-5-yl)ureido)naphthalen-1-yloxy)pyridin-2-yl)-2-methoxyacetamide]	2.3	−28.5	27.0	43	9.9 ± 1.2 × 10^5/mL	inhibitory effects; also recorded: particularly marked	–	–	–	–	–	–	–
4.5	54.3	1.2	1.2	29.6	COCC(=O)Nc1cc(Oc2ccc(NC(=O)Nc3cc(C(C)(C)C)nn3-c3ccc(OC)nc3)c3ccccc23)ccn1 [Example 16, N-(4-(4-(3-(3-tert-Butyl-1-(6-methoxypyridin-3-yl)-1H-pyrazol-5-yl)ureido)naphthalen-1-yloxy)pyridin-2-yl)-2-methoxyacetamide]	8.1	−16.7	−6.2	55	6.3 ± 1.2 × 10^5/mL	inhibitory effects; also recorded: particularly marked	–	–	–	–	–	–	–
2	89.3	1.5	–	1.9	CN(C)C(=O)Nc1cc(Oc2ccc(NC(=O)Nc3cc(C(C)(C)C)nn3-c3ccc(O)cc3)c3ccccc23)ccn1 [Example 34, 3-(4-(4-(3-(3-tert-butyl-1-(4-hydroxyphenyl)-1H-pyrazol-5-yl)ureido)naphthalen-1-yloxy)pyridin-2-yl)-1,1-dimethylurea]	4.4	−25.8	−43.4	14	12.0 ± 1.7 × 10^5/mL	inhibitory effects	–	–	–	–	–	–	–
18.9	48.7	2.2	0.3	0.5	CC(C)(C)c1cc(NC(=O)Nc2ccc(Oc3ccnc(NC(N)=O)c3)c3ccccc23)n(-c2ccc(S(C)(=O)=O)cc2)n1 [Example 45, 1-(3-tert-butyl-1-(4-(methylsulfonyl)phenyl)-1H-pyrazol-5-yl)-3-(4-((2-ureidopyridin-4-yl)oxy)naphthalen-1-yl)urea]	30.9	−14.4	13.9	24	13.2 ± 2.2 × 10^5/mL	inhibitory effects	–	–	–	–	–	–	–
18.8	443	6.5	17.6	21.9	CCNC(=O)Nc1cc(C(=O)c2ccc(NC(=O)Nc3cc(C(C)(C)C)nn3-c3ccc(C)cc3)c3ccccc23)ccn1 [Example 67, 1-(3-tert-butyl-1-p-tolyl-1H-pyrazol-5-yl)-3-(4-(2-(3-ethylureido)isonicotinoyl)naphthalen-1-yl)urea]	13.8	–	–	–	–	–	−9.9^b %	8.8^b %	40	10.5 ± 1.5 × 10^5/ml	20	14.2 ± 1.7 × 10^5/ml	marked and long-lasting inhibition
